According to US20100069364A1, “SUBSTITUTED PYRAZOLINE COMPOUNDS WITH ACAT INHIBITION ACTIVITY, THEIR PREPARATION AND USE AS MEDICAMENTS” (LABORATORIOS DEL DR. ESTEVE, S.A., priority 2007, published 2010):
Read-outs that look alike come from different tables or passages of the source.

How the values were obtained:
[1] = test system: T1, ACAT (Acyl CoA-Cholesterol Acyltransferase); experiment: In-vitro determination of inhibition of ACAT in hepatic microsomes, [14C]-Palmitoyl CoA substrate; assay type: biochemical, Wistar rats; settings: rat hepatic microsomes
T1 construct: other: 10^−4 M; rat hepatic microsomes; other: 3 × 10^−5 M; other: 10^−5 M; ot
Method: I. In-Vitro Determination of Inhibition of ACAT (Acyl CoA-Cholesterol Acyltransferase)
The in-vitro determination of the inhibition of the enzyme ACAT by the compounds of the invention is carried out in principle as described in the publication of Largis EE, Wang CH, DeVries VG and Schaffer SA (1989), “A Novel inhibitor of ACAT-catalyzed cholesterol esterification and cholesterol absorption”, J. Lipid Res. 30, 681-689, (1989), whereby hepatic microsomes are used. The radio-substrate used is [^14C]-Palmitoyl CoA. The respective parts of the description are hereby incorporated by reference and forms part of the present disclosure.
Briefly hepatic microsomes were prepared from the Wistar rats. Enzyme inhibition experiments were performed in presence of 18 μM [^14C]-Palmitoyl CoA as substrate. The vehicle used was 1% DMSO. Compounds to be tested were present at various concentrations and the incubation buffer used was 0.2 M Phosphate buffer, pH 7.4 at 25° C. After a 15 minutes preincubation period at 37° C. an incubation period of 10 minutes at 37° C. followed. Quantification of [^14C]Cholesterol ester was done by column chromatography.
The inhibition of the enzyme ACAT by the inventive substituted pyrazoline compounds was determined as described above.

[2] = biological target: ACAT (Acyl CoA-Cholesterol Acyltransferase); settings: reported value for the reference compound; cited from earlier work
[3] = 3 × 10^−5 M, second table (other experiment)
[4] = 3 × 10^−6 M, second table (other experiment)
[5] = 10^−4 M, second table (other experiment)
[6] = 10^−5 M, second table (other experiment)
[7] = second table (other experiment)

| ACAT Inhibition (%) at various concentration of example ([1]; 3 × 10^−5 M, first table) [%] | ACAT Inhibition (%) at various concentration of example ([1]; 3 × 10^−6 M, first table) [%] | ACAT Inhibition (%) at various concentration of example ([1]; 10^−5 M, first table) [%] | ACAT Inhibition (%) at various concentration of example ([1]; 10^−6 M, first table) [%] | IC50 ([1]; first table) [µM] | ACAT Inhibition (%) at various concentration of example [1, 3] [%] | ACAT Inhibition (%) at various concentration of example [1, 4] [%] | ACAT Inhibition (%) at various concentration of example ([1]; 3 × 10^−7 M, first table) [%] | ACAT Inhibition (%) at various concentration of example [1, 5] [%] | ACAT Inhibition (%) at various concentration of example [1, 6] [%] | IC50 [1, 7] [µM] | Compound | ACAT Inhibition (%) at various concentration of example ([1]; 10^−4 M, first table) [%] | IC50 [2] [µM] |
| --- | --- | --- | --- | --- | --- | --- | --- | --- | --- | --- | --- | --- | --- |
| 91 | 32 | 68 | 20 | 4.93 | 94 | 37 | 10 | 98 | 75 | 4.39 | CC1(c2ccc(Cl)cc2)CC(C(=O)NN2CCCCCC2)=NN1c1ccc(Cl)cc1Cl.Cl (stereo not shown) [Example 2, 5-(4-Chloro-phenyl)-1-(2,4-dichloro-phenyl)-5-methyl-4,5-dihydro-1H-pyrazole-3-carboxylic acid azepan-1-ylamide; hydrochloride] |  |  |
| 79 | 30 | 56 | 10 | 7.63 | 85 | 34 |  | 98 | 62 | 5.96 | CC1(c2ccc(Cl)cc2)CC(C(=O)NN2CCCCC2)=NN1c1ccc(Cl)cc1Cl.Cl (stereo not shown) [Example 3, 5-(4-Chloro-phenyl)-1-(2,4-dichloro-phenyl)-5-methyl-4,5-dihydro-1H-pyrazole-3-carboxylic acid piperidin-1-ylamide; hydrochloride] | 92 |  |
|  |  |  |  | 22.7 |  |  |  |  |  | 12.5 | CC[C@H](C)C(=O)O[C@H]1C[C@@H](C)C=C2C=C[C@H](C)[C@H](CC[C@@H]3C[C@@H](O)CC(=O)O3)[C@H]21 [Lovastatin, reference compound] |  | 29 |

| Compound | ACAT Inhibition (%) at various concentration of example ([1]; 3 × 10^−5 M, first table) [%] | ACAT Inhibition (%) at various concentration of example ([1]; 3 × 10^−6 M, first table) [%] | ACAT Inhibition (%) at various concentration of example ([1]; 10^−5 M, first table) [%] | ACAT Inhibition (%) at various concentration of example ([1]; 10^−6 M, first table) [%] | IC50 ([1]; first table) [µM] | ACAT Inhibition (%) at various concentration of example [1, 3] [%] | ACAT Inhibition (%) at various concentration of example [1, 4] [%] | ACAT Inhibition (%) at various concentration of example ([1]; 3 × 10^−7 M, first table) [%] | ACAT Inhibition (%) at various concentration of example [1, 5] [%] | ACAT Inhibition (%) at various concentration of example [1, 6] [%] | IC50 [1, 7] [µM] | ACAT Inhibition (%) at various concentration of example ([1]; 10^−4 M, first table) [%] | IC50 [2] [µM] |
| --- | --- | --- | --- | --- | --- | --- | --- | --- | --- | --- | --- | --- | --- |
| CC1(c2ccc(Cl)cc2)CC(C(=O)NC2CCCCCC2)=NN1c1ccc(Cl)cc1Cl (stereo not shown) [Example 1, 5-(4-Chloro-phenyl)-1-(2,4-dichloro-phenyl)-5-methyl-4,5-dihydro-1H-pyrazole-3-carboxylic acid cycloheptylamide] | 54 | 14 | 46 | −1 | 27.5 |  |  |  |  |  |  | 62 |  |
